Values of other authors, collected in US8940311B2, “In situ controlled release drug delivery system” (priority 2004, dated 2015).

Experiments:
plasma cholinesterase = plasma cholinesterase (Homo sapiens, UniProt P06276); settings: hydrolysis by plasma cholinesterase
plasma cholinesterase, sequence (P06276 29-602): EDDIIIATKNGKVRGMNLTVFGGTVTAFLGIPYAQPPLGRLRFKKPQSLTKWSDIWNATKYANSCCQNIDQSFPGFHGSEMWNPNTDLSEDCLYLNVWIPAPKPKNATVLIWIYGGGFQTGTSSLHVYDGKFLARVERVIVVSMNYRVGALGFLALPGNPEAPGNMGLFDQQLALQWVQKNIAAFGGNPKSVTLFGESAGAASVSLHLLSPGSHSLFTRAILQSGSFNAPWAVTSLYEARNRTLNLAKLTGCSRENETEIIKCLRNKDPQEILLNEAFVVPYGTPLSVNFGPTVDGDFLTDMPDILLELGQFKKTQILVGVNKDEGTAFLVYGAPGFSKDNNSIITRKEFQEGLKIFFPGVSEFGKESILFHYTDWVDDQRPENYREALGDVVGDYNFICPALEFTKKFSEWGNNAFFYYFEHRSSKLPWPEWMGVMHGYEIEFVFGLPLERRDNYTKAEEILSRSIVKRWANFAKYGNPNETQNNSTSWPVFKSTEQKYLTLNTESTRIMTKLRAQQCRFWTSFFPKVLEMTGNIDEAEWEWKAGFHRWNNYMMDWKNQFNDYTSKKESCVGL

SMILES | half-life (plasma cholinesterase) | order of rate of amide hydrolysis (liver microsomal enzymes)
CCN(CC)CCOC(=O)c1ccc(N)cc1Cl [chloroprocaine] | less than one | –
CCN(CC)CCOC(=O)c1ccc(N)cc1 [procaine] | less than one | –
CCCN(CC)C(CC)C(=O)Nc1c(C)cccc1C (stereo not shown) [etidocaine] | – | fastest
CCCCN1CCCCC1C(=O)Nc1c(C)cccc1C (stereo not shown) [bupivacaine] | – | slowest
